Assay results published in PubChem BioAssay AID2060499 (Molecular Pharmacology Branch, DTP, NCI, 2025).

Tested on: 777334-354-R2-J4-PDC tumor spheroids with HUVEC/MSC, viability
Experiment: Anticancer human tumor 777334-354-R2-J4-PDC patient-derived pancreatic adenocarcinoma cell line growth inhibition [GQUAD]
Settings: for IC50: curve of first compound; for viability, T/C: stronger effect = lower value
Summary of the method: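 Viability of tumor cells grown as complex spheroids with endothelial and stromal cells, exposed to drug combinations. Top concentration at or near clinical Cmax (else 10 microM), diluted in half-log increments.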

[1] = second compound 0.0316 µM, first compound 0.0316 µM
[2] = second compound 0.0316 µM, first compound 0.1 µM
[3] = second compound 0.0316 µM, first compound 0.316 µM
[4] = second compound 0.0316 µM, first compound 1 µM
[5] = second compound 0.0316 µM, first compound 3.16 µM
[6] = second compound 0.0316 µM, first compound 10 µM
[7] = second compound 0.1 µM, first compound 0.0316 µM
[8] = second compound 0.1 µM, first compound 0.1 µM
[9] = second compound 0.1 µM, first compound 0.316 µM
[10] = second compound 0.1 µM, first compound 1 µM
[11] = second compound 0.1 µM, first compound 3.16 µM
[12] = second compound 0.1 µM, first compound 10 µM
[13] = second compound 0.316 µM, first compound 0.0316 µM
[14] = second compound 0.316 µM, first compound 0.1 µM
[15] = second compound 0.316 µM, first compound 0.316 µM
[16] = second compound 0.316 µM, first compound 1 µM
[17] = second compound 0.316 µM, first compound 3.16 µM
[18] = second compound 0.316 µM, first compound 10 µM
[19] = second compound 1 µM, first compound 0.0316 µM
[20] = second compound 1 µM, first compound 0.1 µM
[21] = second compound 1 µM, first compound 0.316 µM
[22] = second compound 1 µM, first compound 1 µM
[23] = second compound 1 µM, first compound 3.16 µM
[24] = second compound 1 µM, first compound 10 µM
[25] = second compound 3.16 µM, first compound 0.0316 µM
[26] = second compound 3.16 µM, first compound 0.1 µM
[27] = second compound 3.16 µM, first compound 0.316 µM
[28] = second compound 3.16 µM, first compound 1 µM
[29] = second compound 3.16 µM, first compound 3.16 µM
[30] = second compound 3.16 µM, first compound 10 µM
[31] = second compound 10 µM, first compound 0.0316 µM
[32] = second compound 10 µM, first compound 0.1 µM
[33] = second compound 10 µM, first compound 0.316 µM
[34] = second compound 10 µM, first compound 1 µM
[35] = second compound 10 µM, first compound 3.16 µM
[36] = second compound 10 µM, first compound 10 µM
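Further: spheroids exposed to compounds for 7 days before readout.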

CCCS(=O)(=O)Nc1ccc(F)c(C(=O)c2c[nH]c3ncc(-c4ccc(Cl)cc4)cc23)c1F + CN(C)c1ccc(Nc2c3ccc(NC(=O)CCN4CCCC4)cc3nc3cc(NC(=O)CCN4CCCC4)ccc23)cc1
IC50 (second compound 0.0316 µM): 8170 nM
IC50 (second compound 0.1 µM): 8420 nM
IC50 (second compound 0.316 µM): 8710 nM
IC50 (second compound 1 µM): 8400 nM
IC50 (second compound 3.16 µM): 8420 nM
IC50 (second compound 10 µM): 6420 nM
viability, T/C [1]: 93%
viability, T/C [2]: 97%
viability, T/C [3]: 115%
viability, T/C [4]: 115%
viability, T/C [5]: 116%
viability, T/C [6]: 37.6%
viability, T/C [7]: 92.5%
viability, T/C [8]: 105%
viability, T/C [9]: 127%
viability, T/C [10]: 128%
viability, T/C [11]: 151%
viability, T/C [12]: 37.6%
viability, T/C [13]: 101%
viability, T/C [14]: 98.5%
viability, T/C [15]: 130%
viability, T/C [16]: 117%
viability, T/C [17]: 152%
viability, T/C [18]: 40.5%
viability, T/C [19]: 92.4%
viability, T/C [20]: 98.6%
viability, T/C [21]: 107%
viability, T/C [22]: 124%
viability, T/C [23]: 137%
viability, T/C [24]: 39%
viability, T/C [25]: 81.6%
viability, T/C [26]: 107%
viability, T/C [27]: 97.6%
viability, T/C [28]: 122%
viability, T/C [29]: 131%
viability, T/C [30]: 39.8%
viability, T/C [31]: 88%
viability, T/C [32]: 87%
viability, T/C [33]: 87.9%
viability, T/C [34]: 93.6%
viability, T/C [35]: 81.1%
viability, T/C [36]: 30.1%

Cc1[nH]c2ccccc2c1CCNCc1ccc(/C=C/C(=O)NO)cc1 + CN(C)c1ccc(Nc2c3ccc(NC(=O)CCN4CCCC4)cc3nc3cc(NC(=O)CCN4CCCC4)ccc23)cc1
IC50 (second compound 0.0316 µM): 202 nM
IC50 (second compound 0.1 µM): 185 nM
IC50 (second compound 0.316 µM): 220 nM
IC50 (second compound 1 µM): 214 nM
IC50 (second compound 3.16 µM): 175 nM
IC50 (second compound 10 µM): 104 nM
viability, T/C (second compound 0.0316 µM, first compound 0.000999 µM): 104%
viability, T/C (second compound 0.0316 µM, first compound 0.00316 µM): 83.1%
viability, T/C (second compound 0.0316 µM, first compound 0.00999 µM): 97.8%
viability, T/C [1]: 90.5%
viability, T/C (second compound 0.0316 µM, first compound 0.0999 µM): 75.8%
viability, T/C [3]: 33.4%
viability, T/C (second compound 0.1 µM, first compound 0.000999 µM): 108%
viability, T/C (second compound 0.1 µM, first compound 0.00316 µM): 84.8%
viability, T/C (second compound 0.1 µM, first compound 0.00999 µM): 103%
viability, T/C [7]: 86.2%
viability, T/C (second compound 0.1 µM, first compound 0.0999 µM): 73.2%
viability, T/C [9]: 30.8%
viability, T/C (second compound 0.316 µM, first compound 0.000999 µM): 92.3%
viability, T/C (second compound 0.316 µM, first compound 0.00316 µM): 88.4%
viability, T/C (second compound 0.316 µM, first compound 0.00999 µM): 99.5%
viability, T/C [13]: 88.9%
viability, T/C (second compound 0.316 µM, first compound 0.0999 µM): 79.6%
viability, T/C [15]: 36.4%
viability, T/C (second compound 1 µM, first compound 0.000999 µM): 84.8%
viability, T/C (second compound 1 µM, first compound 0.00316 µM): 86.9%
viability, T/C (second compound 1 µM, first compound 0.00999 µM): 88.3%
viability, T/C [19]: 79%
viability, T/C (second compound 1 µM, first compound 0.0999 µM): 71.9%
viability, T/C [21]: 38.9%
viability, T/C (second compound 3.16 µM, first compound 0.000999 µM): 90.6%
viability, T/C (second compound 3.16 µM, first compound 0.00316 µM): 86.9%
viability, T/C (second compound 3.16 µM, first compound 0.00999 µM): 89%
viability, T/C [25]: 79.5%
viability, T/C (second compound 3.16 µM, first compound 0.0999 µM): 66.1%
viability, T/C [27]: 33.5%
viability, T/C (second compound 10 µM, first compound 0.000999 µM): 77%
viability, T/C (second compound 10 µM, first compound 0.00316 µM): 80.1%
viability, T/C (second compound 10 µM, first compound 0.00999 µM): 80.6%
viability, T/C [31]: 70.4%
viability, T/C (second compound 10 µM, first compound 0.0999 µM): 51.2%
viability, T/C [33]: 26.4%

O=C(NO)c1cnc(N2CCN(S(=O)(=O)c3ccc4ccccc4c3)CC2)nc1 + CN(C)c1ccc(Nc2c3ccc(NC(=O)CCN4CCCC4)cc3nc3cc(NC(=O)CCN4CCCC4)ccc23)cc1
IC50 (second compound 0.0316 µM): 926 nM
IC50 (second compound 0.1 µM): 1290 nM
IC50 (second compound 0.316 µM): 1070 nM
IC50 (second compound 1 µM): 852 nM
IC50 (second compound 3.16 µM): 954 nM
IC50 (second compound 10 µM): 1010 nM
viability, T/C [1]: 103%
viability, T/C [2]: 89.5%
viability, T/C [3]: 79.4%
viability, T/C [4]: 50.8%
viability, T/C [5]: 11.1%
viability, T/C [6]: 0.3%
viability, T/C [7]: 91.5%
viability, T/C [8]: 90.6%
viability, T/C [9]: 83.5%
viability, T/C [10]: 62.3%
viability, T/C [11]: 8.7%
viability, T/C [12]: 1.67%
viability, T/C [13]: 86.8%
viability, T/C [14]: 94.7%
viability, T/C [15]: 76.6%
viability, T/C [16]: 54.8%
viability, T/C [17]: 10.9%
viability, T/C [18]: 2.03%
viability, T/C [19]: 84.3%
viability, T/C [20]: 80.8%
viability, T/C [21]: 62.5%
viability, T/C [22]: 54.2%
viability, T/C [23]: 12%
viability, T/C [24]: 0.73%
viability, T/C [25]: 86.3%
viability, T/C [26]: 72.1%
viability, T/C [27]: 65.9%
viability, T/C [28]: 54%
viability, T/C [29]: 10.9%
viability, T/C [30]: 0.96%
viability, T/C [31]: 66%
viability, T/C [32]: 65.3%
viability, T/C [33]: 63.1%
viability, T/C [34]: 50.4%
viability, T/C [35]: 11.1%
viability, T/C [36]: 0.95%
